What all share (type): cell-based
The test system of assay [1] is HepG2 cells. The assay can be described thus: RLuc pDNA delivery, robotic library screening, HepG2. How it is done: Cells were seeded in a 96 well plate the day before the experiment at a concentration of 60,000 cell/mL (100 μL/w) in DMEM+10% FBS+1% Gln-Abt. For robotic library screening, the delivery of pDNA encoding for the expression of Renilla luciferase gene (RLuc, pRL-CMV (Promega, #E2261)) in six different cell lines was performed. Amphihilic molecule stock solutions in DMSO were diluted with DMEM and freshly mixed with pDNA stock solutions in DMEM prior to transfection experiments, to afford several complexes at different amphiphile concentration (2-10 μM) while maintaining a constant final pDNA concentration of 2 ng/μL. The mixture was shaken for 30 min at room temperature before the addition to the cells. The cell medium was aspirated, and cells were washed twice with PBS. Finally, 50 μL of the complex's solution were added to the cells and incubated for 4 h. After the incubation, the medium was replaced by 100 μL of fresh DMEM supplemented with 10% FBS. 72 hours after transfection the DMEM was removed, cells were washed once with HBSS and 90 μL of HBSS were added to each well. Cells were incubated at 37° C. for 30 minutes. Then basal luminescence levels were read in a plate reader. Immediately, 10 μL of coelenterazine h in HBSS were added to each well (5 μM final concentration) and cells were incubated at 37° C. for 10 minutes. Finally, the total luminescence measurement of the plates was performed. Amphiphile transfection efficiency was compared and normalized to Lipofectamine® 2000 efficiency (value of 1 in Tables 1-5 and 7; bold numbers). All experiments were done in triplicate.
(§1) Tables 1-7: RLuc (pDNA) or EGFP (mRNA) expression levels were normalized to Lipofectamine reagents (value=1) and expressed as fold-times signal increase. In the case of siRNA, the siRNA treated cells fluorescence was compared with siMOCK control fluorescence, while Cas9-RNP mediated knockout was measured against the fluorescence of untreated cells. In both siRNA and Cas9-RNP, values are expressed as % fluorescence reduction. Amphiphile concentration was 5 μM in all cases. All experiments were performed in triplicate.
Tables 8-13 show the mean (triplicates) luminescent intensity (RLU) measured after the transfection of RLuc pDNA by different amphiphiles at different concentrations in a variety of cell lines. Background luminescence values, accounted by untransfected control cells, were subtracted for processing.

In a further assay the test system is ARPE19 cells. The assay is described as follows: EGFP mRNA delivery, robotic library screening, ARPE19. How it is done:
(§2) Cells were seeded in a 96 well plate the day before the experiment at a concentration of 50,000 cell/mL (100 μL/w) in DMEM+10% FBS+1% Gln-Abt. For robotic library screening, the delivery of EGFP-mRNA (from TriLink, fully substituted with 5-methoxyuridine, capped and polyadenylated; TriLink, CleanCap® EGFP mRNA (5moU), ref. L-7201) in six different cell lines was performed. Amphiphilic molecule stock solutions were prepared in DMSO as described above and diluted in DMEM to afford a range of concentrations. The solutions of EGFP-mRNA/amphiphilic molecule complexes were freshly prepared prior to the transfection experiments. 35 μL of the corresponding amphiphile were added to 10 μL of a solution of EGFP-mRNA at 10 ng/μL in DMEM. The mixture was shaken for 30 min at room temperature before the addition to the cells. The cell medium was aspirated, and cells were washed with PBS twice. Cells were covered with 39 μL of DMEM and 11 μL of the complex's solution were added to the cells and incubated for 4 h (final concentration of peptide=2.5, 5 and 10 μM; final concentration of EGFP-mRNA=25 ng/well). After the incubation, the medium was replaced by 100 μL of fresh DMEM supplemented with 10% FBS. The total EGFP fluorescence was quantified after 72 h in a well plate reader. Amphiphile transfection efficiency was compared and normalized to Lipofectamine® MessengerMax efficiency (value of 1 in Tables 1-5 and 7; double underlined numbers). All experiments were done in triplicate.
as §1
(§3) Tables 14-19 show the mean (triplicates) fluorescence intensity measured after the transfection of EGFP mRNA by different amphiphiles at different concentrations in a variety of cell lines. Background fluorescence values, accounted by untreated control cells, were subtracted for processing.

The next assay concerns Hela cells. The assay can be described thus: EGFP mRNA delivery, robotic library screening, HeLa. Here is the method: as §2, §1, §3
Assay [2] concerns HepG2 cells. The assay is described as follows: EGFP mRNA delivery, robotic library screening, HepG2. The following applies: Oleyl, 5 μM, HepG2 cells. How it is done: as §2, with “Cells were covered with 39 μL of DMEM and 11 μL of the complex's solution were added to the cells and incubated for 4 h (final concentration of peptide=2.5, 5 and 10 μM; final concentration of EGFP-mRNA=25 ng/well).” left out
as §1, §3

*: point of attachment. NHNH2 = NN*

As for “Ac-RHLK*RHK*RRLK*RH-NH2 (Ac-RHLKRHKRRLKRH-NH2; not fully specified (residues 4, 7, 11); printed as Ac-RHLK*RHK*RRLK*RH-NH2; also: linker on K* not given here) [13(3His)]”, the “mean luminescent intensity (RLuc pDNA)” value worked out at 149920 RLU with HepG2 cells [1] (Myristoleyl, 5 μM); 29774 RLU with HepG2 cells [1] (Myristoleyl, 15 μM); 33557 RLU with HepG2 cells [1] (Oleyl, 10 μM); 1389 RLU with HepG2 cells [1] (Oleyl, 15 μM); 65912 RLU in the assay with HepG2 cells [1] (Palmitoleyl, 5 μM); 17170 RLU in the assay on HepG2 cells [1] (Palmitoleyl, 15 μM). In addition, the “mean fluorescence intensity (EGFP mRNA)” value in the assay on ARPE19 cells (Myristoleyl, 5 μM) turned out to be 393; in the assay with ARPE19 cells (Petroselinyl, 2.5 μM), 596; in the assay on ARPE19 cells (Petroselinyl, 5 μM), 384; in the assay on ARPE19 cells (Petroselinyl, 10 μM) it was 508; with Hela cells (HeLa, Myristoleyl, 2.5 μM) it was 621; in the assay on Hela cells (HeLa, Petroselinyl, 2.5 μM), 640. In addition, the “mean fluorescence intensity (EGFP mRNA)” value in the assay with Hela cells (HeLa, Petroselinyl, 10 μM) is recorded as 178; in the assay with Hela cells (Hela, Petroselinyl, 5 μM) it was 208.

“Ac-RK*LRRLLRK*-NH2 (Ac-RK(NHNH2)LRRLLRK(NHNH2)-NH2; not fully specified; printed as Ac-RK*LRRLLRK*-NH2; also: K*2,K*9: native or modified lysine (ε-amide to a linker)) [Peptide 9.2]”: the “mean luminescent intensity (RLuc pDNA)” value is recorded as 5678 RLU with HepG2 cells [1] (Dodecanal, 10 μM); 2289 RLU with HepG2 cells [1] (Dodecanal, 15 μM); 26828 RLU in the assay with HepG2 cells [1] (Myristoleyl, 5 μM); 68860 RLU with HepG2 cells [1] (Myristoleyl, 10 μM); 46601 RLU in the assay on HepG2 cells [1] (Myristoleyl, 15 μM). Moreover, the “mean fluorescence intensity (EGFP mRNA)” value with ARPE19 cells (Myristoleyl, 2.5 μM) was found to be 1377; with ARPE19 cells (Myristoleyl, 5 μM), 941; in the assay with Hela cells (HeLa, Dodecanal, 2.5 μM), 933; in the assay on Hela cells (HeLa, Dodecanal, 5 μM) it was 390; in the assay on Hela cells (HeLa, Myristoleyl, 2.5 μM) it was 1738; in the assay on Hela cells (Hela, Myristoleyl, 5 μM), 585.

As to “Ac-RRLK*RLLRRLK*RL-NH2 (Ac-RRLK(NHNH2)RLLRRLK(NHNH2)RL-NH2; not fully specified; printed as Ac-RRLK*RLLRRLK*RL-NH2; also: K*4,K*11: native or modified lysine (ε-amide to a linker)) [Peptide 13.2]”, the “mean fluorescence intensity (EGFP mRNA)” value with Hela cells (HeLa, Oleyl, 5 μM) is 273. Moreover, in the assay with HepG2 cells [2], the “mean fluorescence intensity after transfection of EGFP mRNA” value is listed as 612.

Values taken from patent US20250304623A1, “PEPTIDES FOR INTRACELLULAR DELIVERY” (UNIVERSIDADE DE SANTIAGO DE COMPOSTELA, priority 2022, published 2025).
